Here are results for 4 compounds from US9611263B2, “Compounds that modulate intracellular calcium” (CALCIMEDICA, INC., priority 2013, dated 2017).

Assay [1] deals with Jurkat cells. The following applies: cited from earlier work.
The test system of assay [2] is Jurkat cells. The following applies: cited from earlier work. The source holds these as a separate data set.
Assay [3] deals with STIM1 and Orai1 (Homo sapiens, UniProt Q96D31). The following applies: HEK293 cells co-expressing STIM1 and Orai1; cited from earlier work.
Chain of STIM1 and Orai1 (Q96D31 whole entry, species assumed): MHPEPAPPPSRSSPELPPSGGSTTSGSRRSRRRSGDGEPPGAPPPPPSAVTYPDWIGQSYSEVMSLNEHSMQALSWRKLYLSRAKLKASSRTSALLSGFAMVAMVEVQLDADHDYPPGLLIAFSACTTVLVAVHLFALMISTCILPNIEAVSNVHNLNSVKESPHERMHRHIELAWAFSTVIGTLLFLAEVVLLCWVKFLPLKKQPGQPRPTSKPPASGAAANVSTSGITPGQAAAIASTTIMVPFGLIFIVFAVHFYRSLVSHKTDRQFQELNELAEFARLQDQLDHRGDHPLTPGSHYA
In assay [4] the target is T1, Orai1/STIM1 (Homo sapiens, UniProt Q96D31).
T1 construct: expressed in transfected cells
T1 sequence (Q96D31 whole entry): as the sequence (Q96D31 whole entry, species assumed) above
Nature of the assay: Fluorescence-based assay of store-operated calcium entry in Orai1/STIM1 stable cells. Type of assay: cell-based. The following applies: HEK-293 cells stably expressing human STIM1 and Orai1; 50% inhibition of Peak-Basal fluorescence signal; read-out: Orai1/STIM1 (IC50, μmol). Summed up: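 HEK-293 cells stably co-expressing human STIM1 and Orai1, loaded with 1.5 μM fluo-4-AM for 1 h at RT. Compounds were preincubated 30 min at RT in Ca²⁺-free HBSS, then entry was triggered with a 10× CaCl2 (10 mM) addition and read on FLIPR. IC50 is 50% inhibition of peak minus basal fluorescence.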

Assay [5] deals with RBL-2H3 cells. Briefly: Fluorescence-based assay of store-operated calcium entry in RBL-2H3 cells. Type of assay: cell-based, rat. The settings on record: Rattus norvegicus, RBL-2H3; thapsigargin; 50% inhibition of Upslope; read-out: RBL-2H3 (IC50, μmol). The method in brief:
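Fluo-4-loaded RBL-2H3 cells in Ca2+-free HBSS got compound for 5 min at RT, then thapsigargin (1 μM final, from 5.5× stock) for 25 min. Calcium (1 mM final, from 12× stock) was then added and fluorescence read by FLIPR; Upslope = signal 7 s after addition minus baseline, IC50 = 50% Upslope inhibition.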

For the compound `Cc1nnsc1C(=O)Nc1ccc(-n2nc(C(F)(F)F)cc2C(F)(F)F)cc1` [BTP-2], the SOCE entry in assay [1] was “inhibits”. Further, the proliferation entry in assay [2] is reported as “inhibits”.

Regarding `NCCOB(c1ccccc1)c1ccccc1` [2-aminoethoxydiphenylborate], the “store-operated Ca2+ entry” value in assay [3] is given as “completely blocked”.

For the compound `Cc1nn(-c2ccccc2F)cc1-c1ccc(NC(=O)c2ccccc2F)nc1` [Example 58, 2-fluoro-N-(5-(1-(2-fluorophenyl)-3-methyl-1H-pyrazol-4-yl)pyridin-2-yl)benzamide], the IC50 in assay [4] is 600 to 1200 nM; in assay [5] it was greater than 1200 nM.

In the case of `Cc1cccc(F)c1C(=O)Nc1ccc(-c2cn(-c3nccs3)nc2C)cc1` [Example 3, 2-fluoro-6-methyl-N-(4-(3-methyl-1-(thiazol-2-yl)-1H-pyrazol-4-yl)phenyl)benzamide], the IC50 in assay [4] and in assay [5] was less than 600 nM in each case.
